Data taken from paper PMC5324105 (2017).

Key:
[1] = system: 12Rd-2 (RNA, aptamer) GGGACACAAUGGACGGCAGAUCUGAGAGGGGAAGACCCUUUGUUAUUAACGAACUUGCGGUAUGAUAACGGCCGACAUGAGAG; test: phosphorescence titration; conditions: 100 mM NaCl, 5 mM MgCl2; 20 mM HEPES pH 7.0; 1 μM compound, RNA 1 to 10 μM
[2] = system: 12Rd-1 (RNA, aptamer) GGGACACAAUGGACGGUACGUAUUGCGUGGGACCCCGCGCAAUGAACUGGCCGAGGGAGACUCGGUAACGGCCGACAUGAGAG; test: phosphorescence titration; conditions: 100 mM NaCl, 5 mM MgCl2; 20 mM HEPES pH 7.0; 1 μM compound, RNA 1 to 10 μM
[3] = system: Ru(bpy)3^2+ aptamer (Δ 25@3', Δ 5@5'; 53 nt) (RNA, aptamer) GGGAUGGACGAUCAUAUAACGAUAGCACUGGCGUAGGGAGACUACGUGUCCGU; test: ITC; conditions: Na+ (phosphate-buffered saline, concentration not stated); PBS (Takara T900); 5 μM aptamer in cell, 50 μM compound in syringe
[4] = system: 2'-F aptamer (RNA, aptamer, 2'-F RNA (DuraScribe T7 transcription; modified positions not stated)) GGGAUGGACGAUCAUAUAACGAUAGCACUGGCGUAGGGAGACUACGUGUCCGU; test: phosphorescence titration; conditions: 100 mM NaCl, 5 mM MgCl2; 20 mM HEPES pH 7.0; 1 μM compound, RNA up to 10 μM
[5] = system: 12Rd-5 (RNA, aptamer) GGGACACAAUGGACGAUCAUAUAACGAUAGCACUGGCGUAGGGAGACUACGUGUCCGUGUGUACCUAACGGCCGACAUGAGAG; test: phosphorescence titration; conditions: 100 mM NaCl, 5 mM MgCl2; 20 mM HEPES pH 7.0; 1 μM compound, RNA 1 to 10 μM
[6] = system: Δ Loop2 (RNA, aptamer) GGGAUGGACGAUCAUAUAACGAUAGCGUAGGGAGACUACGUGUCCGU; test: phosphorescence titration; conditions: 100 mM NaCl, 5 mM MgCl2; 20 mM HEPES pH 7.0; 1 μM compound, RNA up to 10 μM
[7] = system: Δ Hairpin loop2 (RNA, aptamer) GGGAUGGACGAUCAUAUAACGAUAGCACUGGUGUCCGU; test: phosphorescence titration; conditions: 100 mM NaCl, 5 mM MgCl2; 20 mM HEPES pH 7.0; 1 μM compound, RNA up to 10 μM
[8] = system: Ru(bpy)3^2+ aptamer (Δ 25@3', Δ 5@5'; 53 nt) (RNA, aptamer) GGGAUGGACGAUCAUAUAACGAUAGCACUGGCGUAGGGAGACUACGUGUCCGU; test: phosphorescence titration; conditions: 100 mM NaCl, 5 mM MgCl2; 20 mM HEPES pH 7.0; 1 μM compound, RNA 1 to 10 μM
[9] = system: Δ 25@3' (RNA, aptamer) GGGACACAAUGGACGAUCAUAUAACGAUAGCACUGGCGUAGGGAGACUACGUGUCCGU; test: phosphorescence titration; conditions: 100 mM NaCl, 5 mM MgCl2; 20 mM HEPES pH 7.0; 1 μM compound, RNA 1 to 10 μM
[10] = system: Δ Hairpin loop1 (RNA, aptamer) GGGAUGGACGAUAGCACUGGCGUAGGGAGACUACGUGUCCGU; test: phosphorescence titration; conditions: 100 mM NaCl, 5 mM MgCl2; 20 mM HEPES pH 7.0; 1 μM compound, RNA up to 10 μM
[11] = system: Δ 31@3 (RNA, aptamer) GGGACACAAUGGACGAUCAUAUAACGAUAGCACUGGCGUAGGGAGACUACGU; test: phosphorescence titration; conditions: 100 mM NaCl, 5 mM MgCl2; 20 mM HEPES pH 7.0; 1 μM compound, RNA up to 10 μM
[12] = system: 12Rd-3 (RNA, aptamer) GGGACACAAUGGACGUGGGGCUACAGACCAUCCGUUCUAUCCCGAGCACCGGGCCAAUCUCAAGUUAACGGCCGACAUGAGAG; test: phosphorescence titration; conditions: 100 mM NaCl, 5 mM MgCl2; 20 mM HEPES pH 7.0; 1 μM compound, RNA up to 10 μM
[13] = system: 12Rd-4 (RNA, aptamer) GGGACACAAUGGACGGGCACAAGGUCCCACCAUCUCAGACGAGAAAGGAUACGCAGAUCGGCGAAUAACGGCCGACAUGAGAG; test: phosphorescence titration; conditions: 100 mM NaCl, 5 mM MgCl2; 20 mM HEPES pH 7.0; 1 μM compound, RNA up to 10 μM
[14] = system: Δ 15@3' (RNA, aptamer) GGGACACAAUGGACGAUCAUAUAACGAUAGCACUGGCGUAGGGAGACUACGUGUCCGUGUGUACCUAA; test: phosphorescence titration; conditions: 100 mM NaCl, 5 mM MgCl2; 20 mM HEPES pH 7.0; 1 μM compound, RNA 1 to 10 μM

Kd [1]: 1.0 µM
Kd [2]: 1.6 µM
Kd [3]: 0.065 µM
binding [3]: no
binding [4]: no
Kd [5]: 0.118 ± 0.09 µM
binding [6]: no
binding [7]: no
binding [8]: yes
binding [9]: yes
binding [10]: no
binding [11]: no
binding [12]: no
binding [13]: no
binding [14]: yes
SMILES: [Ru+2].c1ccc(-c2ccccn2)nc1.c1ccc(-c2ccccn2)nc1.c1ccc(-c2ccccn2)nc1
